Laboratory results: publication PMC9000250, “Computational Methods for Understanding the Selectivity and Signal Transduction Mechanism of Aminomethyl Tetrahydronaphthalene to Opioid Receptors” (Molecules, 2022)
Values joined by “and” are separate entries in the source; they are usually repeats but may differ in a detail not shown here. Equal values may be shown once. Read-outs that look alike come from different tables or passages of the source.

Assays:
KOR [1] = molecular target: T1, KOR (Homo sapiens, UniProt P41145); assay: Radioligand binding assay, displacement of [3H]U69593 from CHO cells; set-up: host or cells: CHO cells, stably transfected; membranes; conditions: for inhibition at 1 µM: displacement of [3H]U69593 at 1.0 μM
T1 sequence (P41145 whole entry): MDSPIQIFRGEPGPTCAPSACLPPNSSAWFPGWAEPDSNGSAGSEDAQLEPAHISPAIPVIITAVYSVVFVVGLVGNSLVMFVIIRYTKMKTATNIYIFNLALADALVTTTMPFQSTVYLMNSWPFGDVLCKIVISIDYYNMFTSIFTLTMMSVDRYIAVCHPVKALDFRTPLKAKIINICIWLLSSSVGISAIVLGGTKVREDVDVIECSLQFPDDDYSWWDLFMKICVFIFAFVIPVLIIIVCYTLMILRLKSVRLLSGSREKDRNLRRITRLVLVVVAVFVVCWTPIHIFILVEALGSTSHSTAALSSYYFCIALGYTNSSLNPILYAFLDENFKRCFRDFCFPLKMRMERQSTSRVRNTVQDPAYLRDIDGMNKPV

DOR [2] = molecular target: T2, DOR (Homo sapiens, UniProt P41143); assay: Radioligand binding assay, displacement of [3H]DPDPE from CHO cell membranes; set-up: host or cells: CHO cells, stably transfected; membranes; conditions: for Ki: [3H]DPDPE, CHO membranes, read-out: Ki (±SEM) DOR; for activity / affinity for DOR, in words: in vitro
T2 sequence (P41143 whole entry): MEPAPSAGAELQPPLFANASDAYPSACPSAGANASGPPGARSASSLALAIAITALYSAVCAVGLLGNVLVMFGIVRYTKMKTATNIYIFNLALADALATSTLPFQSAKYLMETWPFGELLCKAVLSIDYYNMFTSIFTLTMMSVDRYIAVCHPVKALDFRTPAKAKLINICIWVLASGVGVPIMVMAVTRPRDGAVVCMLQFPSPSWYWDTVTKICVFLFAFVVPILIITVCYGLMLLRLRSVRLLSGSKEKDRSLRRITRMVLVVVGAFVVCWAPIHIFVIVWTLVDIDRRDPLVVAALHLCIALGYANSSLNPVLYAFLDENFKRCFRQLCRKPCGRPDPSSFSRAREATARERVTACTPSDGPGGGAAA

DOR [3] = molecular target: T2, DOR; set-up: host or cells: CHO cells, stably transfected; membranes; method as in PMID 27096047
KOR [4] = molecular target: T1, KOR; set-up: expressed in transfected cells; method as in PMID 27096047; conditions: stimulation of [35S]GTPγS binding; NA = no activity; cited from earlier work
human MOR [5] = molecular target: T3, human MOR (Homo sapiens, UniProt P35372); set-up: method as in PMID 27096047; conditions: cited from earlier work
T3 sequence (P35372 whole entry): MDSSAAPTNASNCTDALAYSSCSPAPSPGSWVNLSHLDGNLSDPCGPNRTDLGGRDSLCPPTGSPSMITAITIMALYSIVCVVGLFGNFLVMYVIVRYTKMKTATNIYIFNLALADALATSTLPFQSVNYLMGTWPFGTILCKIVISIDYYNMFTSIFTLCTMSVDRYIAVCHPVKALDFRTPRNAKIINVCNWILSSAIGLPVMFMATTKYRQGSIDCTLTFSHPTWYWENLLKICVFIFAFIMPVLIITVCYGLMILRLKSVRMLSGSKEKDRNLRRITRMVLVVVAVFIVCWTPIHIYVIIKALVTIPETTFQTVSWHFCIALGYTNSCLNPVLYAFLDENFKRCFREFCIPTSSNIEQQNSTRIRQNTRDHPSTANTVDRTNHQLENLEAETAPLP

KOR [6] = molecular target: T1, KOR; set-up: host or cells: CHO cells, stably transfected; membranes; method as in PMID 27096047; conditions: cited from earlier work; for Ki: read-out: Ki (±SEM) KOR
human MOR [7] = molecular target: T3, human MOR; assay: [35S]GTP-γ-S functional assay, CHO cell membranes; type: biochemical; conditions: stimulation of [35S]GTPγS binding; NA = no activity
Experimental: In a final volume of 0.5 mL, various concentrations of each tested compound were incubated with […] (μ) of CHO cell membranes that stably expressed the human MOR. The assay buffer consisted of 50 mM Tris-HCl, pH 7.4, 3 mM MgCl2, 0.2 mM EGTA, […] and 100 mM NaCl. The final concentration of [^35S]GTP-γ-S was 0.08 nM. Nonspecific binding was measured by the inclusion of […] GTP-γ-S. Binding was initiated by the addition of the membranes. After an incubation period of 60 min at 30 °C, the reactions were terminated by rapid filtration, and the radioactivity was determined by liquid scintillation counting.

human MOR [8] = molecular target: T3, human MOR; assay: Radioligand binding assay, displacement of [3H]DAMGO from CHO cell membranes
DOR [9] = molecular target: T2, DOR; set-up: expressed in transfected cells; method as in PMID 27096047; conditions: stimulation of [35S]GTPγS binding; NA = no activity; cited from earlier work

CN(CCc1ccccc1)CC1CCc2cc(-c3ccccc3)ccc2C1(O)c1cccc(O)c1.Cl (stereo not shown) [FW-DIII-OH-2, 1-(3-hydroxyphenyl)-2-((methyl(phenethyl)amino)methyl)-6-phenyl-1,2,3,4-tetrahydronaphthalen-1-ol hydrochloride]
melting point: 202.1 to 204.6 °C
inhibition at 1 µM (KOR [1]): 13.5 ± 0.1%
Ki (DOR [2]): 228 nM and 229 nM
activity / affinity for DOR, in words (DOR [2]): moderate affinity

CN(C)CC1CCc2cc(-c3ccccc3)ccc2C1(O)c1cccc(O)c1 (stereo not shown) [FW-AII-OH-1]
Inhibition (%) DOR (DOR [3]; displacement of [3H]DPDPE at 1.0 μM; cited from earlier work): 22.0 ± 1.0%
EC50 (KOR [4]): 580 ± 84 nM
KOR Emax% (KOR [4]): 187 ± 2%
Inhibition (%) MOR (human MOR [5]; displacement of [3H]DAMGO at 1.0 μM): 20 ± 1.0%
Ki (KOR [6]): 141 nM and 140 nM

C[C@@H](NC(=O)[C@@H](N)Cc1ccc(O)cc1)C(=O)NCC(=O)N(C)[C@@H](Cc1ccccc1)C(=O)NCCO [DAMGO]
Emax (human MOR [7]): 205 ± 2.05%

COc1ccccc1-c1ccc2c(c1)CCC(CN(C)CCc1ccccc1)C2(O)c1cccc(O)c1.Cl (stereo not shown) [FW-DI-OH-2, 1-(3-hydroxyphenyl)-6-(2-methoxyphenyl)-2-((methyl(phenethyl)amino)methyl)-1,2,3,4-tetrahydronaphthalen-1-ol hydrochloride]
melting point: 200.2 to 202.4 °C
inhibition at 1 µM (KOR [1]): 30.1 ± 2.1%
Ki (DOR [2]): 8.7 nM and 8.65 nM
activity / affinity for DOR, in words (DOR [2]): high affinitive

CN(C)CC1CCCCC1(O)c1cccc(O)c1 (stereo not shown) [M1, reference compound]
Ki (DOR [3]; read-out: Ki (±SEM) DOR; [3H]DPDPE, CHO membranes; >10^4 = no binding affinity up to 10^4 nM; cited from earlier work): > 10000 nM
Emax (human MOR [7]): 226 ± 9%
Ki (KOR [6]; [3H]U69593, CHO cells, >10^4 = no binding affinity up to 10^4 nM): > 10000 nM

CN(C)CC1CCc2ccccc2C1(O)c1cccc(O)c1 (stereo not shown) [FW-1]
inhibition at 1 µM (KOR [1]): 56.3 ± 4.9%
activity for KOR, in words (KOR [1]; in vitro): not be active
activity for MOR, in words (human MOR [8]; in vitro): not be active
Ki (human MOR [8]; read-out: Ki (±SEM) MOR): > 10000 nM
inhibition at 1 µM (DOR [2]): 21.7 ± 2.9%
activity / affinity for DOR, in words (DOR [2]): not be active

COc1ccccc1-c1ccc2c(c1)CCC(CN(C)C)C2(O)c1cccc(O)c1 (stereo not shown) [FW-AII-OH-2]
Ki (DOR [3]; [3H]DPDPE, CHO membranes; >10^4 = no binding affinity up to 10^4 nM; read-out: Ki (±SEM) DOR; cited from earlier work): 4.64 nM and 4.7 nM
DOR Emax% (DOR [9]): 230 ± 7%
EC50 (DOR [9]): 9.3 ± 0.5 nM
Ki (human MOR [5]; [3H]DAMGO, CHO membranes, >10^4 = no binding affinity up to 10^4 nM, read-out: Ki (±SEM) MOR): > 10000 nM
Inhibition (%) KOR (KOR [6]; displacement of [3H]U69593 at 1.0 μM): 17.7 ± 0.1%
